Results reported in the NIST ThermoML archive (doi:10.1021/je9001575).
Numbers after ± are expanded uncertainties.

Assay: molar heat capacity at constant volume
Conditions: Liquid, Vacuum adiabatic calorimetry

CC(C)C [2-methylpropane]
Conditions | molar heat capacity at constant volume [J/K/mol]
279.34 K, 13450 kPa | 95.2 ± 1.4
280.46 K, 32342 kPa | 96.46 ± 1.4
281.62 K, 15113 kPa | 95.82 ± 1.4
283.54 K, 16491 kPa | 96.18 ± 1.4
283.66 K, 2372 kPa | 95.67 ± 1.4
285.76 K, 3730 kPa | 96.28 ± 1.4
285.81 K, 18136 kPa | 97.4 ± 1.4
287.72 K, 19487 kPa | 97.22 ± 1.4
287.93 K, 5135 kPa | 96.68 ± 1.4
289.99 K, 21118 kPa | 98.16 ± 1.4
290.04 K, 6483 kPa | 97.37 ± 1.4
291.87 K, 22438 kPa | 98.44 ± 1.4
292.18 K, 7863 kPa | 98.07 ± 1.4
294.14 K, 24048 kPa | 99.1 ± 1.4
294.3 K, 9205 kPa | 98 ± 1
296.01 K, 25350 kPa | 99.94 ± 1.4
296.42 K, 10563 kPa | 98.75 ± 1.4
298.28 K, 26943 kPa | 99.99 ± 1.4
298.53 K, 11894 kPa | 98.97 ± 1.4
300.14 K, 28222 kPa | 100.48 ± 1.4
300.64 K, 13229 kPa | 100.03 ± 1.4
302.39 K, 29793 kPa | 100.74 ± 1.4
302.75 K, 14551 kPa | 100.42 ± 1.4
303.81 K, 2271 kPa | 99.83 ± 1.4
304.25 K, 31058 kPa | 101.52 ± 1.4
304.85 K, 15868 kPa | 101.01 ± 1.4
306.07 K, 3504 kPa | 100.71 ± 1.4
306.5 K, 32612 kPa | 102.04 ± 1.4
306.98 K, 17187 kPa | 101.25 ± 1.4
308.12 K, 4631 kPa | 100.8 ± 1.4
309.04 K, 18478 kPa | 102.38 ± 1.4
310.38 K, 5860 kPa | 101.98 ± 1.4
311.17 K, 19783 kPa | 102.14 ± 1.4
312.42 K, 6973 kPa | 101.82 ± 1.4
312.62 K, 2143 kPa | 102.01 ± 1.4
313.23 K, 21063 kPa | 102.98 ± 1.5
314.68 K, 8197 kPa | 102.64 ± 1.4
314.81 K, 3247 kPa | 102.19 ± 1.4
315.35 K, 22355 kPa | 103.37 ± 1.5
316.7 K, 9293 kPa | 102.97 ± 1.5
316.95 K, 4329 kPa | 103.28 ± 1.5
317.39 K, 23611 kPa | 103.51 ± 1.5
318.98 K, 10517 kPa | 103.88 ± 1.5
319.15 K, 5436 kPa | 103.12 ± 1.5
319.53 K, 24899 kPa | 104.29 ± 1.5
320.98 K, 11596 kPa | 104.6 ± 1.5
321.27 K, 6508 kPa | 104.19 ± 1.5
321.55 K, 26133 kPa | 104.78 ± 1.5
322.43 K, 2027 kPa | 103.88 ± 1.5
323.27 K, 12819 kPa | 104.79 ± 1.5
323.48 K, 7612 kPa | 104.96 ± 1.5
323.69 K, 27412 kPa | 105.09 ± 1.5
324.79 K, 3113 kPa | 105.07 ± 1.5
325.25 K, 13880 kPa | 105.73 ± 1.5
325.59 K, 8668 kPa | 104.99 ± 1.5
325.7 K, 28633 kPa | 106.08 ± 1.5
326.81 K, 4037 kPa | 105.22 ± 1.5
327.54 K, 15099 kPa | 105.76 ± 1.5
327.82 K, 9782 kPa | 105.71 ± 1.5
327.84 K, 29902 kPa | 106.3 ± 1.5
329.14 K, 5110 kPa | 105.78 ± 1.5
329.51 K, 16147 kPa | 106.45 ± 1.5
329.84 K, 31107 kPa | 106.78 ± 1.5
329.89 K, 10815 kPa | 106.1 ± 1.5
331.17 K, 6040 kPa | 106.74 ± 1.5
331.81 K, 17362 kPa | 106.57 ± 1.5
331.98 K, 32367 kPa | 107.91 ± 1.5
332.14 K, 11928 kPa | 106.39 ± 1.5
333.49 K, 7102 kPa | 106.91 ± 1.5
333.76 K, 18392 kPa | 107.16 ± 1.5
333.97 K, 33555 kPa | 107.88 ± 1.5
334.19 K, 12947 kPa | 107.66 ± 1.5
335.53 K, 8034 kPa | 107.69 ± 1.5
336.06 K, 19603 kPa | 107.61 ± 1.5
336.45 K, 14061 kPa | 107.61 ± 1.5
337.84 K, 9085 kPa | 108.12 ± 1.5
338 K, 20617 kPa | 108.51 ± 1.5
338.49 K, 15066 kPa | 108.51 ± 1.5
339.89 K, 10016 kPa | 108.49 ± 1.5
340.31 K, 21824 kPa | 108.42 ± 1.5
340.75 K, 16177 kPa | 108.82 ± 1.5
342.19 K, 11067 kPa | 108.69 ± 1.5
342.23 K, 22826 kPa | 110.23 ± 1.6
342.77 K, 17169 kPa | 109.53 ± 1.6
344.24 K, 11989 kPa | 109.21 ± 1.5
344.55 K, 24029 kPa | 109.59 ± 1.6
